Test results taken from paper PMC9343605, “Structural insights into ligand recognition and selectivity of somatostatin receptors” (Cell Research, 2022).

What was measured:
[1] = target: T1, SSTR4 (Homo sapiens, UniProt P31391, V103L); test: cAMP accumulation assay (agonist-induced inhibition of forskolin-stimulated cAMP), SSTR4, HEK293F; format: cell-based; conditions: SSTR4 mutant V103^2.60L; mean ± SEM;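 note: transiently transfected cells incubated 40 min at room temperature with 4 µM forskolin and graded ligand, cAMP read by LANCE Ultra TR-FRET kit, values normalized to WT receptor per ligand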
T1 construct: expressed in transfected cells; host or cells: HEK293F
T1 sequence (P31391 whole entry V103L): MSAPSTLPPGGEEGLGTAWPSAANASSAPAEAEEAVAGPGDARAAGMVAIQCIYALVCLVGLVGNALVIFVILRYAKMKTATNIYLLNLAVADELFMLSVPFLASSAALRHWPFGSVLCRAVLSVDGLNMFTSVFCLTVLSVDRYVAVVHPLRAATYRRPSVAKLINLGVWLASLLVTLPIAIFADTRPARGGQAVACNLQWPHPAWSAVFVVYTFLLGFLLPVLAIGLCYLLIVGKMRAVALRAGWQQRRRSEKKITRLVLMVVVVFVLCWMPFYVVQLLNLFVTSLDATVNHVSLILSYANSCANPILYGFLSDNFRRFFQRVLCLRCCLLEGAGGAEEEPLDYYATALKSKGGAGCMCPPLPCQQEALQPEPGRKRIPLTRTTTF
Protocol: (§1) HEK293F cells were transiently transfected with WT or mutant SSTR2/SSTR4 using transfection reagent (PEI MAX 2000, Polysciences) and incubated at 37 °C in 5% CO2. Forty-eight hours after transfection, cells were centrifuged and resuspended in stimulation buffer (Hanks’ balanced salt solution (HBSS) supplemented with 5 mM HEPES, 0.5 mM IBMX and 0.1% (w/v) bovine serum albumin (BSA), pH 7.4) to a density of 200,000 cells/mL and added to 384-well white plates (PerkinElmer, 1000 cells/well). cAMP accumulation was measured by a LANCE Ultra cAMP kit (PerkinElmer) according to the manufacturer’s instructions. In brief, transfected cells were incubated for 40 min in stimulation buffer with 2.5 μL forskolin (SSTR2: 2 μM; SSTR4: 4 μM) and gradient concentration of ligand at RT. The reactions were stopped by addition of lysis buffer containing 5 μL Eu-cAMP tracer and 5 μL ULight-anti-cAMP. Plates were then incubated for 60 min at RT and time-resolved FRET signals were measured at 620 nm and 665 nm by an EnVision multilabel plate reader (PerkinElmer). Data were analyzed in GraphPad PRISM 8 and all values were normalized to the WT for each ligand. All outcomes were repeated at least three times.
(§2) aMutants represent that mutations were introduced separately into the WT receptors and
(§3) transiently expressed in HEK 293F cells.
(§4) bThe EC50 ratio was shown as EC50(mutant)/EC50(WT), indicating the shift between the WT
(§5) and mutant curves, reflecting the effect of the mutations on receptor signaling.
(§6) cData are shown as mean ± S.E.M. from at least three independent experiments
(§7) performed in technical triplicate. One-way ANOVA was performed followed by
(§8) Dunnett’s post-test and compared with WT. The P value was defined as: *P<0.05;
(§9) d The span is defined as the window between the maximal agonists response (Emax) and
(§10) e Sample size; the number of independent experiments performed in technical triplicate.
(§11) f Receptor expression level of HEK 293F cells was determined independently by flow
(§12) cytometry with anti-FLAG antibody and shown as per cent compared to the WT.

[2] = target: T2, SSTR4 (Homo sapiens, UniProt P31391, L123A); test: as above; format: cell-based; conditions: SSTR4 mutant L123^3.29A; mean ± SEM
T2 construct: expressed in transfected cells; host or cells: HEK293F
T2 sequence (P31391 whole entry L123A): as the sequence (P31391 whole entry V103L) above, with L103V, L123A counted along it
Protocol: as §1, §2, §3, §4, §5, §6, §7, §8, §9, §10, §11, §12

[3] = target: T3, SSTR4 (Homo sapiens, UniProt P31391, L297A); test: as above; format: cell-based; conditions: SSTR4 mutant L297^7.39A; mean ± SEM
T3 construct: expressed in transfected cells; host or cells: HEK293F
T3 sequence (P31391 whole entry L297A): as the sequence (P31391 whole entry V103L) above, with L103V, L297A counted along it
Protocol: as §1, §2, §3, §4, §5, §6, §7, §8, §9, §10, §11, §12

[4] = tested on: SSTR4; test: as above; format: cell-based, human; conditions: for EC50 ratio: EC50(mutant)/EC50(WT)
Protocol: as §1, §2, §3, §4, §5, §6, §7, §8, §9, §10, §11, §12

[5] = target: T4, SSTR4 (Homo sapiens, UniProt P31391, N282A); test: as above; format: cell-based; conditions: SSTR4 mutant N282^6.58A; mean ± SEM
T4 construct: expressed in transfected cells; host or cells: HEK293F
T4 sequence (P31391 whole entry N282A): as the sequence (P31391 whole entry V103L) above, with L103V, N282A counted along it
Protocol: as §1, §2, §3, §4, §5, §6, §7, §8, §9, §10, §11, §12

[6] = target: T5, SSTR4 (Homo sapiens, UniProt P31391, N293A); test: as above; format: cell-based; conditions: SSTR4 mutant N293^7.35A; mean ± SEM
T5 construct: expressed in transfected cells; host or cells: HEK293F
T5 sequence (P31391 whole entry N293A): as the sequence (P31391 whole entry V103L) above, with L103V, N293A counted along it
Protocol: as §1, §2, §3, §4, §5, §6, §7, §8, §9, §10, §11, §12

[7] = target: T6, SSTR4 (Homo sapiens, UniProt P31391, F211A); test: as above; format: cell-based; conditions: SSTR4 mutant F211^5.38A; mean ± SEM
T6 construct: expressed in transfected cells; host or cells: HEK293F
T6 sequence (P31391 whole entry F211A): as the sequence (P31391 whole entry V103L) above, with L103V, F211A counted along it
Protocol: as §1, §2, §3, §4, §5, §6, §7, §8, §9, §10, §11, §12

[8] = tested on: SSTR4; test: Whole cell binding assay, SSTR4, competition with 125I-Tyr11-SST14, CHO-K1; design: species or system human; conditions: IC50(mutant)/IC50(WT)
Protocol: For SSTR2 and SSTR4, CHO-K1 cells were cultured in F12 medium with 10% FBS and seeded at a density of 30,000 cells/well in Isoplate-96 plates (PerkinElmer). Twenty-four hours after transfection with the WT or mutant SSTR2/SSTR4, CHO-K1 cells were washed twice and incubated with blocking buffer (F12 supplemented with 25 mM HEPES and 0.1% (w/v) BSA, pH 7.4) for 2 h at 37 °C. […] Following incubation, cells were washed three times with ice-cold PBS and lysed by 50 μL lysis buffer (PBS supplemented with 20 mM Tris-HCl, 1% Triton X-100, pH 7.4). The radioactivity was subsequently counted (counts/min, CPM) in a scintillation counter (MicroBeta[2] Plate Counter, PerkinElmer) using a scintillation cocktail (OptiPhaseSuperMix, PerkinElmer). Data were analyzed by nonlinear regression using GraphPad PRISM 8.
aMutants represent that all mutations were introduced separately into the WT receptors
and expressed in CHO K1 cells.
bThe IC50 ratio was shown as IC50(mutant)/IC50(WT), indicating the shift between the WT
and mutant curves, reflecting the effect of the mutations on ligand binding.
cData are shown as mean ± S.E.M. form at least three independent experiments
as §7
Dunnett’s post-test and compared with WT.
as §9, §10

[9] = target: SSTR2 (Homo sapiens, UniProt P30874); test: cAMP accumulation assay (agonist-induced inhibition of forskolin-stimulated cAMP), SSTR2, HEK293F; format: cell-based; design: expressed in transfected cells; host or cells: HEK293F; conditions: WT SSTR2;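 note: transiently transfected cells exposed to 2 µM forskolin and a ligand concentration series for 40 min at room temperature in IBMX-containing HBSS, then cAMP quantified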
SSTR2 (Homo sapiens, UniProt P30874), sequence (P30874 whole entry): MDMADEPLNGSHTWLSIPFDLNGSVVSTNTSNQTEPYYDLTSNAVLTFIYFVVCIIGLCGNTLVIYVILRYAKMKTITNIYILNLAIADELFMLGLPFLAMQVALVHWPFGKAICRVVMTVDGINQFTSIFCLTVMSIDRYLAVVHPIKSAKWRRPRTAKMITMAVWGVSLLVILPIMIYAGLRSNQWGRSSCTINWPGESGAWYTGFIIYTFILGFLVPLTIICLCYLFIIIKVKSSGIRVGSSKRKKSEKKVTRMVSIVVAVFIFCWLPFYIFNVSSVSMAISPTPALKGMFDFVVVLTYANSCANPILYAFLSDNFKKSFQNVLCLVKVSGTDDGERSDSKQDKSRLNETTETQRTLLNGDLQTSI
Protocol: as §1, §2, §3, §4, §5, §6, §7, §8, §9, §10, §11, §12

[10] = target: SSTR2 (Homo sapiens, UniProt P30874, Y302A); test: as above; format: cell-based; design: expressed in transfected cells; host or cells: HEK293F; conditions: SSTR2 mutant Y302^7.43A; mean ± SEM
SSTR2 (Homo sapiens, UniProt P30874, Y302A), sequence (P30874 whole entry Y302A): as the sequence (P30874 whole entry) above, with Y302A counted along it
Protocol: as §1, §2, §3, §4, §5, §6, §7, §8, §9, §10, §11, §12

[11] = target: SSTR2 (Homo sapiens, UniProt P30874, D122A); test: as above; format: cell-based; design: expressed in transfected cells; host or cells: HEK293F; conditions: SSTR2 mutant D122^3.32A; mean ± SEM
SSTR2 (Homo sapiens, UniProt P30874, D122A), sequence (P30874 whole entry D122A): as the sequence (P30874 whole entry) above, with D122A counted along it
Protocol: as §1, §2, §3, §4, §5, §6, §7, §8, §9, §10, §11, §12

[12] = target: SSTR2 (Homo sapiens, UniProt P30874, F294A); test: as above; format: cell-based; design: expressed in transfected cells; host or cells: HEK293F; conditions: SSTR2 mutant F294^7.35A; mean ± SEM
SSTR2 (Homo sapiens, UniProt P30874, F294A), sequence (P30874 whole entry F294A): as the sequence (P30874 whole entry) above, with F294A counted along it
Protocol: as §1, §2, §3, §4, §5, §6, §7, §8, §9, §10, §11, §12

[13] = target: SSTR2 (Homo sapiens, UniProt P30874, T212A); test: as above; format: cell-based; design: expressed in transfected cells; host or cells: HEK293F; conditions: SSTR2 mutant T212^5.42A; mean ± SEM
SSTR2 (Homo sapiens, UniProt P30874, T212A), sequence (P30874 whole entry T212A): as the sequence (P30874 whole entry) above, with T212A counted along it
Protocol: as §1, §2, §3, §4, §5, §6, §7, §8, §9, §10, §11, §12

[14] = target: SSTR2 (Homo sapiens, UniProt P30874, F275A); test: as above; format: cell-based; design: expressed in transfected cells; host or cells: HEK293F; conditions: SSTR2 mutant F275^6.54A; mean ± SEM
SSTR2 (Homo sapiens, UniProt P30874, F275A), sequence (P30874 whole entry F275A): as the sequence (P30874 whole entry) above, with F275A counted along it
Protocol: as §1, §2, §3, §4, §5, §6, §7, §8, §9, §10, §11, §12

[15] = target: SSTR2 (Homo sapiens, UniProt P30874, F272A); test: as above; format: cell-based; design: expressed in transfected cells; host or cells: HEK293F; conditions: SSTR2 mutant F272^6.51A; mean ± SEM
SSTR2 (Homo sapiens, UniProt P30874, F272A), sequence (P30874 whole entry F272A): as the sequence (P30874 whole entry) above, with F272A counted along it
Protocol: as §1, §2, §3, §4, §5, §6, §7, §8, §9, §10, §11, §12

[16] = target: SSTR2 (Homo sapiens, UniProt P30874, Y205A); test: as above; format: cell-based; design: expressed in transfected cells; host or cells: HEK293F; conditions: SSTR2 mutant Y205^5.35A
SSTR2 (Homo sapiens, UniProt P30874, Y205A), sequence (P30874 whole entry Y205A): as the sequence (P30874 whole entry) above, with Y205A counted along it
Protocol: as §1, §2, §3, §4, §5, §6, §7, §8, §9, §10, §11, §12

[17] = target: SSTR2 (Homo sapiens, UniProt P30874, T194A); test: as above; format: cell-based; design: expressed in transfected cells; host or cells: HEK293F; conditions: SSTR2 mutant T194^ECL2A; mean ± SEM
SSTR2 (Homo sapiens, UniProt P30874, T194A), sequence (P30874 whole entry T194A): as the sequence (P30874 whole entry) above, with T194A counted along it
Protocol: as §1, §2, §3, §4, §5, §6, §7, §8, §9, §10, §11, §12

[18] = target: SSTR2 (Homo sapiens, UniProt P30874, Q126A); test: as above; format: cell-based; design: expressed in transfected cells; host or cells: HEK293F; conditions: SSTR2 mutant Q126^3.36A; mean ± SEM
SSTR2 (Homo sapiens, UniProt P30874, Q126A), sequence (P30874 whole entry Q126A): as the sequence (P30874 whole entry) above, with Q126A counted along it
Protocol: as §1, §2, §3, §4, §5, §6, §7, §8, §9, §10, §11, §12

[19] = target: SSTR2 (Homo sapiens, UniProt P30874, Q102A); test: as above; format: cell-based; design: expressed in transfected cells; host or cells: HEK293F; conditions: SSTR2 mutant Q102^2.63A; mean ± SEM
SSTR2 (Homo sapiens, UniProt P30874, Q102A), sequence (P30874 whole entry Q102A): as the sequence (P30874 whole entry) above, with Q102A counted along it
Protocol: as §1, §2, §3, §4, §5, §6, §7, §8, §9, §10, §11, §12

Cc1ccc(S(=O)(=O)N[C@@H](CCN)C(=O)N[C@@H](Cc2ccccc2)C(N)=O)c2ccccc12 [J-2156]
Span [1]: 40±4 % of WT
pEC50 ± SEM [1]: 9.00±0.25
Span [2]: 61±6 % of WT
pEC50 ± SEM [2]: 9.49±0.23
Span [3]: 111 ± 8 % of WT
pEC50 ± SEM [3]: 7.59±0.16
EC50 ratio ([4]; Construct 4 SSTR4): 0.2
effect of alanine mutation on agonist potency ([4]; SSTR4 F275^6.51 and Y276^6.52): significant reduction in agonist potency
EC50 ratio ([4]; SSTR4 mutant F211^5.38A): 33
EC50 ratio ([4]; SSTR4 mutant L123^3.29A): 2
EC50 ratio ([4]; SSTR4 mutant L297^7.39A): 137
EC50 ratio ([4]; SSTR4 mutant M130^3.36A): 4
EC50 ratio ([4]; SSTR4 mutant N199^ECL2A): 0.3
EC50 ratio ([4]; SSTR4 mutant N293^7.35A): 3
EC50 ratio ([4]; SSTR4 mutant Q279^6.55A): 1
EC50 ratio ([4]; SSTR4 mutant T215^5.42A): 1
EC50 ratio ([4]; SSTR4 mutant V103^2.60L): 5
decrease of potency ([4]; SSTR4 mutant V103^2.60 to leucine): ~ 5 fold
EC50 ratio ([4]; SSTR4 mutant Y276^6.52A): 1016
EC50 ratio ([4]; SSTR4 mutant Y301^7.43A): 497
EC50 ratio ([4]; WT SSTR4): 1
Span [5]: 62±5 % of WT
pEC50 ± SEM [5]: 9.99±0.21
Span [6]: 87±6 % of WT
pEC50 ± SEM [6]: 9.30±0.17
Span [7]: 94±7 % of WT
pEC50 ± SEM [7]: 8.20±0.17
IC50 ratio ([8]; Construct 4 SSTR4): 0.5
IC50 ratio ([8]; SSTR4 mutant Q279^6.55A): 2
IC50 ratio ([8]; SSTR4 mutant T215^5.42A): 1
IC50 ratio ([8]; WT SSTR4): 1

C[C@@H](c1c[nH]c2ccccc12)[C@@H](NC(=O)N1CCC(n2c(=O)[nH]c3ccccc32)CC1)C(=O)N[C@@H](CCCCN)C(=O)OC(C)(C)C [L-054,522]
EC50 ratio ([9]; EC50(mutant)/EC50(WT)): 1
pEC50 ± SEM ([9]; HEK293F, mean ± SEM, at least three independent experiments): 9.67±0.08
Span ([9]; window between Emax and vehicle, mean ± SEM): 100±4 % of WT
Span [10]: 96±8 % of WT
pEC50 ± SEM [10]: 8.67±0.19
Span [11]: 41±6 % of WT
pEC50 ± SEM [11]: 7.37±0.27
Span [12]: 95±8 % of WT
pEC50 ± SEM [12]: 8.36±0.20
Span [13]: 108±5 % of WT
pEC50 ± SEM [13]: 8.94±0.12
Span [14]: 154±10 % of WT
pEC50 ± SEM [14]: 8.93±0.15
Span [15]: 215±18 % of WT
pEC50 ± SEM [15]: 7.85±0.19
EC50 [16]: 0.01 nM
Span ([16]; mean ± SEM): 143±18 % of WT
Span [17]: 104±10 % of WT
pEC50 ± SEM [17]: 9.26±0.23
Span [18]: 82±6 % of WT
pEC50 ± SEM [18]: 9.18±0.17
Span [19]: 79±6 % of WT
pEC50 ± SEM [19]: 9.46±0.18
